Results from PubChem BioAssay AID248 (DTP/NCI, 2004).
Inconclusive results and toxic doses are left out. Cut-off read from the data, not from the text of the source: active = T/C of 150% or more; inactive = T/C below 125%. Square brackets hold non-standard residues; d marks the D form. Peptide text beside a SMILES is read from it. * marks the point of attachment. ξ: configuration not given here. ξE = NC(CCC(=O)O)C(=O)O; Cbz = O=C(OCc1ccccc1)*

Test system: L1210 leukemia ip in BDF1 mice, survival T/C
Test: NCI In Vivo Anticancer Drug Screen. Data for tumor model L1210 Leukemia (intraperitoneal) in B6D2F1 (BDF1) mice
Settings: endpoint: mean survival time, higher = longer survival
Summary of the method: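 Survival endpoint. Drug-treated group vs vehicle group, expressed as T divided by C. Tumor passaged by transplantation.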

[1] = dose: 10.0 mg/kg/injection, schedule: Q01DX001 (ip), vehicle: saline
[2] = dose: 100.0 mg/kg/injection, schedule: Q01DX001 (ip), vehicle: saline
[3] = dose: 10.0 mg/kg/injection, schedule: Q04DX003 (ip), vehicle: saline
[4] = dose: 3.12 mg/kg/injection, schedule: Q01DX009 (ip), vehicle: saline
[5] = dose: 6.25 mg/kg/injection, schedule: Q01DX009 (ip), vehicle: saline
[6] = dose: 100.0 mg/kg/injection, schedule: Q01DX001 (ip), vehicle: carboxymethylcellulose (CMC)
[7] = dose: 200.0 mg/kg/injection, schedule: Q01DX001 (ip), vehicle: carboxymethylcellulose (CMC)
[8] = dose: 400.0 mg/kg/injection, schedule: Q01DX001 (ip), vehicle: carboxymethylcellulose (CMC)
[9] = dose: 200.0 mg/kg/injection, schedule: Q01DX001 (ip), vehicle: saline

Measured: T/C

O=C(O)c1cc(C(=O)O)c(C(=O)O)cc1C(=O)O (tested in a mixture with another compound)
inactive: dose: 5.0 mg/kg/injection, schedule: Q01DX001 (ip), vehicle: saline 107 % of control | [1] 103 % of control | dose: 20.0 mg/kg/injection, schedule: Q01DX001 (ip), vehicle: saline 98 % of control | dose: 40.0 mg/kg/injection, schedule: Q01DX001 (ip), vehicle: saline 104 % of control | dose: 80.0 mg/kg/injection, schedule: Q01DX001 (ip), vehicle: saline 96 % of control | [2] 98 % of control

CC1CCCN(C(=S)[S-])C1.CC1CCCN(C(=S)[S-])C1.[Zn] (stereo not drawn)
inactive: dose: 1.25 mg/kg/injection, schedule: Q01DX009 (ip), vehicle: saline 88 % of control | dose: 2.5 mg/kg/injection, schedule: Q01DX009 (ip), vehicle: saline 86 % of control | dose: 2.5 mg/kg/injection, schedule: Q04DX003 (ip), vehicle: acetone 91 % of control | dose: 5.0 mg/kg/injection, schedule: Q04DX003 (ip), vehicle: acetone 88 % of control | [1] 96 % of control | dose: 10.0 mg/kg/injection, schedule: Q04DX003 (ip), vehicle: acetone 88 % of control | [3] 86 % of control

c1ccc(C2CC2NC2=NCCO2)cc1 (stereo not drawn)
inactive: dose: 12.5 mg/kg/injection, schedule: Q04DX002 (ip), vehicle: saline with Tween-80 104 % of control | dose: 25.0 mg/kg/injection, schedule: Q04DX002 (ip), vehicle: saline with Tween-80 101 % of control | dose: 50.0 mg/kg/injection, schedule: Q04DX002 (ip), vehicle: saline with Tween-80 96 % of control | dose: 100.0 mg/kg/injection, schedule: Q04DX002 (ip), vehicle: saline with Tween-80 93 % of control

NC(CSC1c2ccccc2-c2ccccc21)C(=O)O (stereo not drawn)
inactive: dose: 75.0 mg/kg/injection, schedule: Q01DX001 (ip), vehicle: carboxymethylcellulose (CMC) 96 % of control | dose: 150.0 mg/kg/injection, schedule: Q01DX001 (ip), vehicle: carboxymethylcellulose (CMC) 98 % of control | dose: 300.0 mg/kg/injection, schedule: Q01DX001 (ip), vehicle: carboxymethylcellulose (CMC) 101 % of control

O=C(O)C(C(=O)O)C(=O)O
inactive: dose: 75.0 mg/kg/injection, schedule: Q01DX001 (ip), vehicle: saline 94 % of control | dose: 150.0 mg/kg/injection, schedule: Q01DX001 (ip), vehicle: saline 94 % of control

Cc1cc2cc3cccc[n+]3cc2c2ccccc12
inactive: dose: 2.0 mg/kg/injection, schedule: Q01DX Z (ip), vehicle: carboxymethylcellulose (CMC) 101 % of control | dose: 4.0 mg/kg/injection, schedule: Q01DX Z (ip), vehicle: carboxymethylcellulose (CMC) 110 % of control | dose: 8.0 mg/kg/injection, schedule: Q01DX Z (ip), vehicle: carboxymethylcellulose (CMC) 113 % of control | dose: 16.0 mg/kg/injection, schedule: Q01DX Z (ip), vehicle: carboxymethylcellulose (CMC) 113 % of control

C[Se]c1ncnc2c(C3OC(CO)C(O)C3O)[nH]nc12 (stereo not drawn)
inactive: dose: 3.12 mg/kg/injection, schedule: Q01DX005 (ip), vehicle: saline 106 % of control | [4] 112 % of control | dose: 6.25 mg/kg/injection, schedule: Q01DX005 (ip), vehicle: saline 109 % of control | [5] 94 % of control | dose: 12.5 mg/kg/injection, schedule: Q01DX005 (ip), vehicle: saline 104 % of control | dose: 12.5 mg/kg/injection, schedule: Q01DX009 (ip), vehicle: saline 91 % of control

COc1cccc(OC)c1OC
inactive: dose: 87.5 mg/kg/injection, schedule: Q01DX009 (ip), vehicle: Klucel (hydroxypropylcellulose) (HPC) 106 % of control | dose: 175.0 mg/kg/injection, schedule: Q01DX009 (ip), vehicle: Klucel (hydroxypropylcellulose) (HPC) 100 % of control | dose: 350.0 mg/kg/injection, schedule: Q01DX009 (ip), vehicle: Klucel (hydroxypropylcellulose) (HPC) 97 % of control

CSc1ccc(OC(=O)Oc2ccc(SC)cc2)cc1
inactive: [6] 97 % of control | [7] 95 % of control | [8] 92 % of control

Cn1cnc([N+](=O)[O-])c1Sc1nc(N)nc2c1ncn2C1OC(CO)C(O)C1O (stereo not drawn)
inactive: dose: 0.94 mg/kg/injection, schedule: Q01DX Z (ip), vehicle: methylcellulose (MC) 121 % of control | dose: 1.88 mg/kg/injection, schedule: Q01DX Z (ip), vehicle: methylcellulose (MC) 121 % of control | dose: 3.75 mg/kg/injection, schedule: Q01DX Z (ip), vehicle: methylcellulose (MC) 116 % of control | dose: 7.5 mg/kg/injection, schedule: Q01DX Z (ip), vehicle: methylcellulose (MC) 116 % of control | dose: 15.0 mg/kg/injection, schedule: Q01DX Z (ip), vehicle: methylcellulose (MC) 103 % of control

CC(=O)Oc1ccc2c(c1)C=CC1C2CCC2(C)/C(=N/NC(N)=S)CCC12 (stereo not drawn)
inactive: dose: 100.0 mg/kg/injection, schedule: Q04DX002 (ip), vehicle: Klucel (hydroxypropylcellulose) (HPC) 100 % of control | dose: 200.0 mg/kg/injection, schedule: Q04DX002 (ip), vehicle: Klucel (hydroxypropylcellulose) (HPC) 90 % of control | dose: 400.0 mg/kg/injection, schedule: Q04DX002 (ip), vehicle: Klucel (hydroxypropylcellulose) (HPC) 116 % of control

Cc1ccc(S(=O)(=O)Nc2ccccc2N=Cc2ccc(N(CCCl)CCCl)cc2C)cc1
inactive: [6] 101 % of control | [7] 103 % of control | [8] 86 % of control

CS(=O)(=O)N(CC(=O)O)Cc1ccc(Cl)cc1
inactive: dose: 100.0 mg/kg/injection, schedule: Q04DX003 (ip), vehicle: other 102 % of control | dose: 200.0 mg/kg/injection, schedule: Q04DX003 (ip), vehicle: other 105 % of control | dose: 400.0 mg/kg/injection, schedule: Q04DX003 (ip), vehicle: other 98 % of control

c1ccc(N2CCNCC2)nc1
inactive: dose: 5.0 mg/kg/injection, schedule: Q01DX009 (ip), vehicle: acetone 100 % of control | dose: 10.0 mg/kg/injection, schedule: Q01DX001 (ip), vehicle: acetone 96 % of control | dose: 10.0 mg/kg/injection, schedule: Q01DX009 (ip), vehicle: acetone 97 % of control | [3] 109 % of control | dose: 20.0 mg/kg/injection, schedule: Q01DX001 (ip), vehicle: acetone 95 % of control | dose: 20.0 mg/kg/injection, schedule: Q01DX009 (ip), vehicle: acetone 95 % of control | dose: 20.0 mg/kg/injection, schedule: Q04DX003 (ip), vehicle: saline 98 % of control | dose: 40.0 mg/kg/injection, schedule: Q01DX001 (ip), vehicle: acetone 106 % of control | dose: 40.0 mg/kg/injection, schedule: Q04DX003 (ip), vehicle: saline 101 % of control

Cc1ccc(/C=N/NC(=O)CNC(=O)c2ccccc2)cc1
inactive: dose: 100.0 mg/kg/injection, schedule: Q01DX009 (ip), vehicle: saline with Tween-80 93 % of control | dose: 200.0 mg/kg/injection, schedule: Q01DX009 (ip), vehicle: saline with Tween-80 96 % of control | dose: 400.0 mg/kg/injection, schedule: Q01DX009 (ip), vehicle: saline with Tween-80 98 % of control

O=C(O)CCC(NC(=O)OCc1ccccc1)C(=O)NCC(=O)O (stereo not drawn) (Cbz-[ξE]-Gly-OH)
inactive: dose: 12.5 mg/kg/injection, schedule: Q04DX002 (ip), vehicle: saline 95 % of control | dose: 25.0 mg/kg/injection, schedule: Q04DX002 (ip), vehicle: saline 92 % of control | dose: 50.0 mg/kg/injection, schedule: Q04DX002 (ip), vehicle: saline 100 % of control

C=CC=O
inactive: dose: 3.0 mg/kg/injection, schedule: Q01DX009 (ip), vehicle: saline 96 % of control | [4] 98 % of control | dose: 3.12 mg/kg/injection, schedule: Q04DX003 (ip), vehicle: saline 91 % of control | dose: 6.0 mg/kg/injection, schedule: Q01DX009 (ip), vehicle: saline 102 % of control | [5] 90 % of control | dose: 6.25 mg/kg/injection, schedule: Q04DX003 (ip), vehicle: saline 97 % of control | dose: 7.5 mg/kg/injection, schedule: Q04DX003 (ip), vehicle: saline 88 % of control | dose: 12.0 mg/kg/injection, schedule: Q01DX009 (ip), vehicle: saline 102 % of control | dose: 12.0 mg/kg/injection, schedule: Q04DX003 (ip), vehicle: Klucel (hydroxypropylcellulose) (HPC) 98 % of control | dose: 12.5 mg/kg/injection, schedule: Q04DX003 (ip), vehicle: saline 89 % of control | dose: 25.0 mg/kg/injection, schedule: Q04DX003 (ip), vehicle: Klucel (hydroxypropylcellulose) (HPC) 101 % of control | [2] 117 % of control | [9] 109 % of control | dose: 400.0 mg/kg/injection, schedule: Q01DX001 (ip), vehicle: saline 98 % of control

Nc1cccnc1NCC(O)c1ccccc1 (stereo not drawn)
inactive: [2] 103 % of control | [9] 97 % of control
